Experiments:
[1] = target: T1, TLR7 (Mus musculus, UniProt P58681); assay: In vivo inhibition of loxoribine-mediated cytokine induction in mice; parameters: from tissue; host or cells: whole animal: female Balb/C mice, plasma cytokines; species or system Balb/C mice; conditions: 100 μg formulated RNA IV 2 h prior to 1 mg Lox
T1 sequence (P58681 27-1050): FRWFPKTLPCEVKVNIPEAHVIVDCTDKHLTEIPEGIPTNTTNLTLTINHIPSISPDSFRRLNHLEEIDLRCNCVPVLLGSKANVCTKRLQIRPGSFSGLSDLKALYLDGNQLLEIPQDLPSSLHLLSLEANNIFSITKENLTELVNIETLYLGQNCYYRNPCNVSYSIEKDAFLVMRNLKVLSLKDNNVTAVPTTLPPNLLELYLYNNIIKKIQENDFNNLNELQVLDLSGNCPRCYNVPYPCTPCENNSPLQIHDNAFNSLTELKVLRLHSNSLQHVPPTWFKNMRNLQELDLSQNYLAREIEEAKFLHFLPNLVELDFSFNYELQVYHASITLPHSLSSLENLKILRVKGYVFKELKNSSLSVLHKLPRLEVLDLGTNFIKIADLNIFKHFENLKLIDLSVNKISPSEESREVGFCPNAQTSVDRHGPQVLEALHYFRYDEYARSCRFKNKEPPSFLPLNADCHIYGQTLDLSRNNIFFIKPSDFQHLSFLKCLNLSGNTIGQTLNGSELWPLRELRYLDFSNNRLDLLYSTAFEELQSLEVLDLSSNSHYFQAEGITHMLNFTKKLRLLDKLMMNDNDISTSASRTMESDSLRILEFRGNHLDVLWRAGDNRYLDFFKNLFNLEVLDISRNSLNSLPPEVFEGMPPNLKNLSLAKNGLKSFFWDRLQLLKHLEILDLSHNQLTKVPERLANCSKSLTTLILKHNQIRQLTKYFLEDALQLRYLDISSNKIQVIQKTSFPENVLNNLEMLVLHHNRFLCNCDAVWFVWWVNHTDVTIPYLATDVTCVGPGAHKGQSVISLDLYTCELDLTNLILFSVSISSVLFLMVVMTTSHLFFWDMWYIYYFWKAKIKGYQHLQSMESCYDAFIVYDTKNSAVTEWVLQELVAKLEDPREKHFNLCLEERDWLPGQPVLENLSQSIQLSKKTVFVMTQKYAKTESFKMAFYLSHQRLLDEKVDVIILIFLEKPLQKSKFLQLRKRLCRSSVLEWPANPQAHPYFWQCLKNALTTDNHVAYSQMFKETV
Description: (§1) Cytokine ELISA. All cytokines were quantified using sandwich ELISA kits according to the manufacturer's instructions. These were mouse and human IFN-α (PBL Biomedical; Piscataway, N.J.) and IL-6 (eBioscience; San Diego, Calif.).
(§2) In Vivo Cytokine Induction. Animal studies were performed at Protiva Biotherapeutics in accordance with Canadian Council on Animal Care guidelines and following protocol approval by the local Animal Care and Use Committee. Female Balb/C mice were subjected to a two-week quarantine and acclimation period prior to use at six to eight-weeks of age. RNA formulations were administered by standard injection in the lateral tail vein in 0.2 ml PBS. Six hours after injection, blood was collected by cardiac puncture and processed as plasma for cytokine analysis. In experiments studying inhibition of cytokine induction by loxoribine, formulated RNA (100 μg) was administered IV 2 h prior to IV administration of 1 mg loxoribine in PBS. Blood was collected by cardiac puncture 2 h after administration of loxoribine and processed as plasma for cytokine analysis.

[2] = target: T2, TLR7 (Homo sapiens, UniProt Q9NYK1); assay: Loxoribine (TLR7 agonist)-induced IFN-α/IL-6 production in human PBMCs; type: cell-based; conditions: SNALP-encapsulated ssRNA added before naked agonist, supernatant at 24 hr, ELISA
T2 construct: Human PBMCs were isolated from whole blood of healthy donors; endogenous in cells; host or cells: primary human PBMCs from healthy donors
T2 sequence (Q9NYK1 27-1049): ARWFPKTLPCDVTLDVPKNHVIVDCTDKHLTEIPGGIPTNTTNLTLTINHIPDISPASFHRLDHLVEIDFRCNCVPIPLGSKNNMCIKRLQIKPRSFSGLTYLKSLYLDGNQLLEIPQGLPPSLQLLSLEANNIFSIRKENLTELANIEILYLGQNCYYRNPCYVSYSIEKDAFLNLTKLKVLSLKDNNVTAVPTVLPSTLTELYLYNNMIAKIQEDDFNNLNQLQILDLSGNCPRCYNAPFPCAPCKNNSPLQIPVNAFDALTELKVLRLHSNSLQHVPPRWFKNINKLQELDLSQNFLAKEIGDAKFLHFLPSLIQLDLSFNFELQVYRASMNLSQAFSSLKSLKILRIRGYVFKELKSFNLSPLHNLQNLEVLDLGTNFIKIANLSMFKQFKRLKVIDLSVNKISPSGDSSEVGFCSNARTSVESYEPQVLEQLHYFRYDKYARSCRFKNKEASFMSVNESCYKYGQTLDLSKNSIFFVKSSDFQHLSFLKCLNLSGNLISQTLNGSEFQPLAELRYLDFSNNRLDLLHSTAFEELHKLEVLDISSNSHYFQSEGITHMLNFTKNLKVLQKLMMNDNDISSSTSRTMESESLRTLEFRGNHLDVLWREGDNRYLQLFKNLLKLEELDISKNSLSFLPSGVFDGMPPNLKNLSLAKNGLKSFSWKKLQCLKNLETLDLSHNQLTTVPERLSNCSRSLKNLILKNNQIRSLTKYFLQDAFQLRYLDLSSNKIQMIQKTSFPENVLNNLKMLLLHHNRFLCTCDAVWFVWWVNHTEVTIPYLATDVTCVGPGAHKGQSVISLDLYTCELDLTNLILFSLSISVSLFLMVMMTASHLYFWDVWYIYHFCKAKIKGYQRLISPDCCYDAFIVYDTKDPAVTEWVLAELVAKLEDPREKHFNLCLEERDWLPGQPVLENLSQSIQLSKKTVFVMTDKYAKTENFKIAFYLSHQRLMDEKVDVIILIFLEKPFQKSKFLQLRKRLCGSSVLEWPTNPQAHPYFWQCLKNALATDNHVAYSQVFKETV
Description: (§3) All RNA molecules used in this study were heated at 90° C. for 3 min. and then placed at 37° C. for 60 min. Non-denaturing PAGE analysis on a 20% polyacrylamide gel was performed to confirm that ssRNA molecules were intact and that no duplexes had formed upon heating. The RNA molecules were encapsulated in a SNALP formulation comprising PEG-cDMA:DLinDMA:cholesterol:DSPC in a 2:40:48:10 mol % ratio (2:40 SNALP), prepared using a syringe press process.
(§4) Fresh human peripheral blood mononuclear cells (PBMCs) were isolated and seeded at about 3×10^5 cells/well in a total volume of 180 μl. Next, 20 μl of the appropriate SNALP diluted in PBS or 10 μl of naked TLR agonist were added to the PBMCs. For time course experiments, PBMCs were pretreated with UmodS ssRNA or a control and the appropriate naked TLR agonist was added at 0, 0.5, or 2 hours after pretreatment. When the SNALP and naked TLR agonist were added separately, the SNALP was added first followed by the naked TLR agonist. At t=24 hr., the cell supernatant was harvested and IFN-α and/or IL-6 levels were determined using ELISA.
(§5) Lipid Encapsulation of RNA and ODN. RNA or ODN were encapsulated in liposomes by a process of spontaneous vesicle formation as described in Judge et al., supra, and Jeffs et al., Pharm. Res., 22:362-372 (2005).
(§6) Cell Isolation and Culture. Human PBMCs were isolated from whole blood of healthy donors by a standard Ficoll-Hypaque density centrifugation. Blood was diluted 1:1 with PBS, layered onto Ficoll-Paque Plus, and centrifuged at 1600 RPM for 30 min. PBMCs were washed in PBS twice followed by resuspension in complete media (RPMI 1640, 10% heat inactivated FBS, 2 mM L-glutamine, and 1% penicillin/streptomycin). PBMCs were plated at 2.5×10^5 cells/well in 96 well plates for cytokine induction assays.
(§7) Loxoribine (InvivoGen; San Diego, Calif.), polyIC (Sigma-Aldrich; St. Louis, Mo.), and formulated nucleic acids were diluted in PBS and added to either human PBMC or Flt3L DC cultures. Cells were incubated 24 h at 37° C. before supernatants were assayed for cytokines by ELISA.
as §1

[3] = test system: TLR7/8; assay: Cytokine induction in human PBMCs by immunostimulatory RNA, alone or co-formulated with modified ssRNA in the same SNALP/lipid particle; type: cell-based
Description: as §3, §4
The ssRNA molecules used in this study were heated at 90° C. for 3 min. and then placed at 37° C. for 60 min to disrupt any potential secondary structure. Non-denaturing PAGE analysis on a 20% polyacrylamide gel was performed to confirm that ssRNA molecules were intact and that no duplexes had formed upon heating. siRNA duplexes were prepared by annealing equimolar concentrations of two deprotected and desalted ssRNA oligonucleotides using standard procedures. Formation of annealed siRNA duplexes was confirmed by non-denaturing PAGE analysis on a 20% polyacrylamide gel. The RNA molecules were encapsulated in a 2:40 SNALP formulation prepared using a syringe press process.
Fresh human peripheral blood mononuclear cells (PBMCs) were isolated and seeded at about 3×10^5 cells/well in a total volume of 180 μl. Next, 20 μl of the appropriate SNALP diluted in PBS were added to the PBMCs. At t=24 hr., the cell supernatant was harvested and IFN-α and/or IL-6 levels were determined using an enzyme-linked immunosorbent assay (ELISA). For example, IFN-α and IL-6 levels can be measured using a sandwich ELISA kit available from PBL Biomedical (Piscataway, N.J.) and eBioscience (San Diego, Calif.), respectively.
as §5, §6, §7, §1

[4] = target: T1, TLR7; assay: In vivo cytokine induction by formulated ssRNA in mice; parameters: from tissue; host or cells: whole animal: female Balb/C mice, plasma cytokines; species or system Balb/C mice; conditions: IV, plasma 6 h after administration
Description: as §1, §2

[5] = human PBMCs, equimolar amounts in the same SNALP, 24 h

GFP-S: native non-stimulatory ssRNA: GGCUACGUCCAGGAGCGCAUU (RNA, backbone not given here) [reference compound]
response to loxoribine (plasma IFN-α and IL-6) after pre-treatment [1]: robust response

polyUmod15: 2′OMe-uridine homopolymer of 15 nucleotides in length (UUUUUUUUUUUUUUU; all 2'-O-methyl, backbone not given here)
IL-6 levels induced by naked loxoribine [2]: inhibited only IFN-α levels | level of IFN-α induced by naked loxoribine [2]: inhibited | cytokine production from human PBMCs when co-formulated with immunostimulatory RNA ([3]; human PBMCs, co-formulated with immunostimulatory ssRNA): equally as effective at inhibiting cytokine production | IFN-α levels induced by β-gal antisense ssRNA when co-encapsulated [3, 5]: significantly reduced | IL-6 levels induced by β-gal antisense ssRNA when co-encapsulated [3, 5]: significantly reduced | IFN-α levels induced by β-gal antisense ssRNA when co-encapsulated ([3]; human PBMCs, equimolar amounts in the same SNALP, 24 h, listed as (mU)15): inhibit

βgal-AS: immunostimulatory ssRNA: AAAUCGCUGAUUUGUGUAGUU (chemistry not given here) [reference compound]
plasma IFN-α after administration of the formulated RNA alone [4]: significant elevations | plasma IL-6 after administration of the formulated RNA alone [4]: significant elevations | IFN-α production induced by the RNA alone ([3]; human PBMC cultures, lipid-formulated RNA alone, doses 0.1 to 3 μg/ml): induced high levels of IFN-α

Reference: US20080171716A1, “NUCLEIC ACID MODULATION OF TOLL-LIKE RECEPTOR-MEDIATED IMMUNE STIMULATION” (Protiva Biotherapeutics, Inc., priority 2006, published 2008)
